This assay deals with PMA-differentiated THP-1 cells. Kind of assay: IL-1β production in PMA-differentiated THP-1 cells stimulated with gramicidin (hTHP-1 assay containing 2% fetal bovine serum; Procedures 1 and 2). As to conditions: 2% fetal bovine serum. It counts as cell-based, human. The method in brief:
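Secreted IL-1β, read by HTRF, after gramicidin challenge (5 μM, 2 h) of THP-1 cells differentiated with PMA (20 ng/ml, 16-18 h) and plated at 50,000 cells/well in 2% FBS medium. Compounds, 0.0017-100 μM final with 0.37% DMSO, were added 1 h before stimulation.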

The mark [1] stands for this setting: Table B2, class symbols, read-out: hTHP-1 IC50.
Where [2] appears, read: Homo sapiens, THP-1, Table B2, numeric bounds, read-out: hTHP-1 IC50.
Setting [3] is: Table B4, class symbols, read-out: hTHP-1 IC50.
[4] abbreviates: Table B1, class symbols, read-out: Average IC50 of compounds in hTHP-1 assay: hTHP-1 IC50.
Setting [5] is: Homo sapiens, THP-1, Table B3, hTHP-1 assay, class symbols, read-out: IC50.
[6] abbreviates: Homo sapiens, THP-1, Table B1, class symbols, read-out: Average IC50 of compounds in hTHP-1 assay: hTHP-1 IC50.
[7] abbreviates: Homo sapiens, THP-1, Table B2, class symbols, read-out: hTHP-1 IC50.

Where two headings read alike, the source gives them in different places.

Regarding `Cc1c(C2CC2)nc2c(c1NC(=O)N=S(N)(=O)c1cc(C(C)(C)O)n(-c3ccccc3)n1)CCC2` (single isomer, unassigned) [Compound 651b, (R) or (S)-N′-((2-cyclopropyl-3-methyl-6,7-dihydro-5H-cyclopenta[b]pyridin-4-yl)carbamoyl)-5-(2-hydroxypropan-2-yl)-1-phenyl-1H-pyrazole-3-sulfonimidamide], the IC50 under setting [1] is 1000 to 5000 nM.
For the molecule `Cc1c(CC2CC2)nc2c(c1NC(=O)N=S(N)(=O)c1cc(C(C)(C)O)cs1)CCC2` (single isomer, unassigned) [Compound 665a, (S) or (R)-N′-((2-(cyclopropylmethyl)-3-methyl-6,7-dihydro-5H-cyclopenta[b]pyridin-4-yl)carbamoyl)-4-(2-hydroxypropan-2-yl)thiophene-2-sulfonimidamide], the IC50 under setting [2] was greater than 30000 nM.
`C[C@@H]1CCc2c1nc1c(c2NC(=O)N=S(N)(=O)c2cc(F)c(C(C)(C)O)s2)CCC1` (single isomer, unassigned) [Compound 616a, (R) or (S)-4-Fluoro-5-(2-hydroxypropan-2-yl)-N′-(((R)-3-methyl-1,2,3,5,6,7-hexahydrodicyclopenta [b,e]pyridin-8-yl)carbamoyl) thiophene-2-sulfonimidamide]: the IC50 under setting [1] fell in the range of 40 to 200 nM.
For the molecule `CC1(C)CCc2c1nc1c(c2NC(=O)N=S(N)(=O)c2sc(C(O)(CO)CO)nc2CO)CCC1` (single isomer, unassigned) [Example 778, (S) or (R)-N′-((3,3-dimethyl-1,2,3,5,6,7-hexahydrodicyclopenta [b,e]pyridin-8-yl)carbamoyl)-4-(hydroxymethyl)-2-(1,2,3-trihydroxypropan-2-yl)-thiazole-5-sulfonimidamide], the half-maximal inhibitory concentration (IC50) under setting [3] fell in the range of 1000 to 5000 nM.
For the molecule `CC1CCc2c1nc1c(c2NC(=O)N=S(N)(=O)c2sc(C(C)(C)O)cc2F)CCC1` (stereo not drawn) [Compound 103, 3-fluoro-5-(2-hydroxypropan-2-yl)-N′-((3-methyl-1,2,3,5,6,7-hexahydrodicyclopenta[b,e]pyridin-8-yl)carbamoyl)thiophene-2-sulfonimidamide], under setting [4], the 50% inhibitory concentration (IC50) was 40 to 200 nM.
Consider `CO[C@H]1COc2c(S(N)(=O)=NC(=O)Nc3c(C)c(C(F)(F)F)nc4c3CCC4)cnn2C1` (stereo partly drawn) [Example 564, (6R)-6-methoxy-N′-((3-methyl-2-(trifluoromethyl)-6,7-dihydro-5H-cyclopenta[b]pyridin-4-yl)carbamoyl)-6,7-dihydro-5H-pymzolo[5,1-b][1,3]oxazine-3-sulfonimidamide], for which the IC50 under setting [5] fell in the range of 1000 to 5000 nM.
For the molecule `CC1CCc2c1nc1c(c2NC(=O)N=S(N)(=O)c2cc(C(C)(C)O)cs2)CCC1C` (single isomer, unassigned) [Compound 131g, (R,R,R) or (R,S,S)-N′-((3,5-dimethyl-1,2,3,5,6,7-hexa-hydrodicyclo-penta[b,e]pyridin-8-yl)carbamoyl)-4-(2-hydroxypropan-2-yl)thio-phene-2-sulfonimidamide], under setting [4], the IC50 is 200 to 1000 nM.
Consider `Cc1nc(C)c(C)c(NC(=O)N=S(N)(=O)c2cnc(C(C)(C)O)s2)c1C` (single isomer, unassigned) [Compound 133b, (S) or (R)-2-(2-hydroxypropan-2-yl)-N′-((2,3,5,6-tetramethylpyridin-4-yl)carbamoyl)thiazole-5-sulfonimidamide], for which the IC50 (Table B1, numeric bounds, read-out: Average IC50 of compounds in hTHP-1 assay: hTHP-1 IC50) was greater than 30000 nM.
Regarding `CCn1cc(F)c(S(N)(=O)=NC(=O)Nc2c3c(nc4c2CCC4)CCC3)n1` (single isomer, unassigned) [Example 761, (R) or (S)-1-ethyl-4-fluoro-N′-((1,2,3,5,6,7-hexahydrodicyclopenta[b,e]pyridin-8-yl)carbamoyl)-1H-pyrazole-3-sulfonimidamide], the IC50 under setting [3] is 40 to 200 nM.
As for `CCc1c(C(F)(F)F)nc2c(c1NC(=O)N=S(N)(=O)c1cc(C(C)(C)O)cs1)CCC2` (single isomer, unassigned) [Compound 698b, (R) or (S)-N′-((3-ethyl-2-(trifluoromethyl)-6,7-dihydro-5H-cyclopenta[b]pyridin-4-yl)carbamoyl)-4-(2-hydroxypropan-2-yl)thiophene-2-sulfonimidamide], the IC50 under setting [1] fell in the range of 200 to 1000 nM.
Take `CCn1nc(S(N)(=O)=NC(=O)Nc2c3c(nc4c2CC[C@H]4C)CCC3)cc1CO` (stereo partly drawn) [Example 590, 1-Ethyl-5-(hydroxymethyl)-N′-(((R)-3-methyl-1,2,3,5,6,7-hexahydrodicyclopenta[b,e]pyridin-8-yl)carbamoyl)-1H-pyrazole-3-sulfonimidamide]: the IC50 under setting [5] lay in the range of 1000 to 5000 nM.
Take `CC(C)(O)c1cnc(S(N)(=O)=NC(=O)Nc2c3c(nc4c2CCC4)CCC3)s1` (single isomer, unassigned) [Compound 167b, (R) or (S)-N′-((1,2,3,5,6,7-hexahydrodicyclo-penta[b,e]pyridin-8-yl)carbamoyl)-5-(2-hydroxypropan-2-yl)thiazole-2-sulfonimidamide]: the IC50 under setting [4] lay within 200 to 1000 nM.
With `CC(C)(O)c1csc(S(N)(=O)=NC(=O)Nc2c3c(nc4c2CCC4)CCC3)c1` (stereo not drawn) [Compound 155, N′-((1,2,3,5,6,7-hexahydrodicyclopenta[b,e]pyridin-8-yl)carbamoyl)-4-(2-hydroxypropan-2-yl)thiophene-2-sulfonimidamide], the IC50 under setting [6] lay in the range of 40 to 200 nM.
As to `CCc1c(C(F)(F)F)nc2c(c1NC(=O)N=S(N)(=O)c1cnc(C(C)(C)O)s1)CCC2` (single isomer, unassigned) [Compound 610b, (S) or (R)-N′-((3-ethyl-2-(trifluoromethyl)-6,7-dihydro-5H-cyclopenta[b]pyridin-4-yl)carbamoyl)-2-(2-hydroxypropan-2-yl)thiazole-5-sulfonimidamide], under setting [1], the IC50 was in the range of 5000 to 30000 nM.
Take `C[C@@H]1CCc2c1nc1c(c2NC(=O)N=[S@@](N)(=O)c2cc([C@@H](C)O)cs2)CCC1` (single isomer, unassigned) [Example 663, (R)-4-((R) or (S)-1-hydroxyethyl)-N′-(((R)-3-methyl-1,2,3,5,6,7-hexahydrodicyclopenta[b,e]pyridin-8-yl)carbamoyl) thiophene-2-sulfonimidamide]: the IC50 under setting [5] lay in the range of 40 to 200 nM.
In the case of `CCOC(=O)c1nc2c(c(NC(=O)N=S(=O)(N[Si](C)(C)C(C)(C)C)c3cnc(C(C)(C)O)s3)c1C)CCC2` (stereo not drawn) [Example 613, Ethyl 4-(3-(((tert-butyldimethylsilyl)amino)(2-(2-hydroxypropan-2-yl)thiazol-5-yl)(oxo)-l6-sulfaneylidene)ureido)-3-methyl-6,7-dihydro-5H-cyclopenta[b]pyridine-2-carboxylate], the IC50 (Homo sapiens, THP-1, Table B3, hTHP-1 assay, numeric values, read-out: IC50) is greater than 30000 nM.
`CC(C)n1ccc(S(N)(=O)=NC(=O)Nc2c3c(nc4c2CCC42CC2)CCC3)n1` (stereo not drawn) [Compound 172, 1-isopropyl-N′-((1′,5′,6′,7′-tetrahydro-2′H-spiro[cyclopropane-1,3′-dicyclopenta[b,e]pyridin]-8′-yl)carbamoyl)-1H-pyrazole-3-sulfonimidamide]: the IC50 under setting [6] lay within 200 to 1000 nM.
Consider `CC1(C)CCc2c1nc1c(c2NC(=O)N=S(N)(=O)c2cnn(C(F)F)c2)CCC1` (stereo not drawn) [Compound 637, 1-(Difluoromethyl)-N′-((3,3-dimethyl-1,2,3,5,6,7-hexahydrodicyclopenta[b,e]pyridin-8-yl)carbamoyl)-1H-pyrazole-4-sulfonimidamide], for which the IC50 under setting [7] lay in the range of 5000 to 30000 nM.
`CC(C)(O)c1cc(Br)c(S(N)(=O)=NC(=O)Nc2c3c(nc4c2CCC4)CCC3)s1` (single isomer, unassigned) [Compound 690a, (S) or (R)-3-Bromo-N′-((1,2,3,5,6,7-hexahydrodicyclopenta [b,e]pyridin-8-yl)carbamoyl)-5-(2-hydroxypropan-2-yl)thiophene-2-sulfonamidamide]: the IC50 under setting [2] is greater than 30000 nM.
In the case of `CC(C)c1ncc(F)c(C(C)C)c1NC(=O)N=S(N)(=O)c1ncc(C(C)(C)O)s1` (single isomer, unassigned) [Compound 165b], the IC50 under setting [6] lay within 5000 to 30000 nM.
`CC(C)n1cc(F)c(S(N)(=O)=NC(=O)Nc2c3c(nc4c2CCC4)CCC3)n1` (single isomer, unassigned) [Example 786, (S) or (R)-4-fluoro-N′-((1,2,3,5,6,7-hexahydrodicyclopenta [b,e]pyridin-8-yl)carbamoyl)-1-isopropyl-1H-pyrazole-3-sulfonimidamide]: under setting [3], the IC50 lay within 5000 to 30000 nM.
Turning to `CC(C)n1ccc(S(N)(=O)=NC(=O)Nc2c3c(nc4c2CCC4(C)C)CCC3)n1` (stereo not drawn) [Compound 126, N′-((3,3-dimethyl-1,2,3,5,6,7-hexahydrodicyclopenta[b,e]pyridin-8-yl)carbamoyl)-1-isopropyl-1H-pyrazole-3-sulfonimidamide], the IC50 under setting [6] is 40 to 200 nM.
Regarding `CC(C)(O)c1csc(S(N)(=O)=NC(=O)Nc2cc(C3CC3)nc3c2CCC3)c1` (single isomer, unassigned) [Compound 176a, (S) or (R)-N′-((2-cyclopropyl-6,7-dihydro-5H-cyclopenta[b]pyridin-4-yl)carbamoyl)-4-(2-hydroxypropan-2-yl)thiophene-2-sulfonimidamide], under setting [2], the 50% inhibitory concentration (IC50) was greater than 30000 nM.
Consider `CCc1c(C(F)(F)F)nc2c(c1NC(=O)N=S(N)(=O)c1cc(C(C)(C)O)cs1)CCC2` (stereo not drawn) [Compound 609, N′-((3-ethyl-2-(trifluoromethyl)-6,7-dihydro-5H-cyclopenta[b]pyridin-4-yl)carbamoyl)-4-(2-hydroxypropan-2-yl)thiophene-2-sulfonimidamide], for which, under setting [7], the IC50 lay in the range of 1000 to 5000 nM.

The record behind these values is patent publication US20230031406A1, “COMPOUNDS AND COMPOSITIONS FOR TREATING CONDITIONS ASSOCIATED WITH NLRP ACTIVITY” (Novartis AG, priority 2018, published 2023).
